According to PubChem BioAssay AID652032 (The Scripps Research Institute Molecular Screening Center, 2013):

Target: Kappa-type opioid receptor (Homo sapiens) (UniProt P41145)
Assay: kappa opioid receptor antagonism potency – cell-based, fluorescence, dose response, late-stage follow-up (AID 652032)
Conditions: OPRK1-expressing cells, fluorescence antagonist read-out

Kappa-type opioid receptor (Homo sapiens), sequence (P41145 whole entry, looked up): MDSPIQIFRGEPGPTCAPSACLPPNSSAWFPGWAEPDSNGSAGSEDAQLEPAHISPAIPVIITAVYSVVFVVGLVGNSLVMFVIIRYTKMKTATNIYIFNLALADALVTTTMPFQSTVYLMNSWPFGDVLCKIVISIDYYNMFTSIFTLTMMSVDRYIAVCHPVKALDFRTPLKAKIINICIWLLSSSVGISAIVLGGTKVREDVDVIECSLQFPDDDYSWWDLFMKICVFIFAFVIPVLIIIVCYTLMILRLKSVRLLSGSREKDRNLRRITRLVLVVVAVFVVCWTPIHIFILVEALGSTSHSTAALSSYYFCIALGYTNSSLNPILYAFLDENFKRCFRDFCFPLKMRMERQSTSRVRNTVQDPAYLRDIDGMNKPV

Compound	IC50 [nM]
COC(=O)c1cc(I)cnc1N1CCC(NC2CCCCC2)CC1	79
CC(C)OC(=O)c1cc(Br)cnc1N1CCC(NC2CCCCC2)CC1	398
COC(=O)c1cc(Br)cnc1N1CCC(NC2CCCCC2)CC1	133
COC(=O)c1cc(Br)cnc1N1CCC(NC2CCCCCC2)CC1	110
COC(=O)c1cc(F)cnc1N1CCC(NC2CCCCC2)CC1	6600
COC(=O)c1cc(Br)cnc1N1CCC(CNC2CCCCC2)CC1	3500
O=C(O)c1cc(Br)cnc1N1CCC(NC2CCCCC2)CC1	5200
COC(=O)c1cc(NC(C)=O)cnc1N1CCC(NC2CCCCC2)CC1	628
COC(=O)c1cccnc1N1CCC(NC2CCCCC2)C(O)C1 (configuration not stated)	2200
COC(=O)c1cc(Br)cnc1N1CCC(NC2CCC(C)CC2)CC1 (configuration not stated)	536
COC(=O)c1cc(Br)cnc1N1CCC(N[C@H](C)C2CCCCC2)CC1	6800
CCOC(=O)c1cc(C(=O)OC)c(C)nc1N1CCC(NC2CCCCC2)CC1	2600
COC(=O)c1cc(Br)cnc1N1CCC(N(C)C2CCCCC2)CC1	2700
COC(=O)c1cc(Br)cnc1N1CCC(N[C@@H]2CCCC[C@H]2O)CC1	231
COC(=O)c1cc(Br)cnc1N1CCC(N)C(O)C1 (configuration not stated)	5900
COC(=O)c1cc(Br)cnc1N1CCC(NC2CCOCC2)CC1	621
COC(=O)c1cc(Br)cnc1N1CCC(NC2CCCCC2OC)CC1 (configuration not stated)	267
COC(=O)c1cc(Br)cnc1N1CCC(NC2CCCC(O)C2)CC1 (configuration not stated)	652
COC(=O)c1cc(Br)cnc1N1CCC(NC2CCCC2)CC1	120
COC(=O)c1cc(Br)cnc1N1CCC(NC2CCCCC2)C1 (configuration not stated)	185
COC(=O)c1cc(Cl)cnc1N1CCC(NC2CCCCC2)CC1	159
COC(=O)c1cc(Br)cnc1N1CCC(NCCO)CC1	9200
